A short description of this data set: xn = mol fraction of the nth substance listed. The note with it: 298.15 K, 100 kPa.

SMILES strings stand for the structures.

On to `CC(=O)[O-].Cn1cc[nH+]c1` + CC(=O)[O-].C[NH+]1CCOCC1, for which the electrical conductivity (x1 = 1) is 0.448 S/m.

On to `CC(=O)[O-].C[NH+]1CCOCC1` + CC(=O)[O-].Cn1cc[nH+]c1, for which the electrical conductivity was 0.0229 S/m (x2 = 0); 0.0447 S/m (x2 = 0.1); 0.0662 S/m (x2 = 0.19); 0.0959 S/m (x2 = 0.31); 0.158 S/m (x2 = 0.4); 0.202 S/m (x2 = 0.5). Besides, the electrical conductivity was determined as 0.242 S/m (x2 = 0.59) and 0.331 S/m (x2 = 0.8).

For the setting “x2 = 0”, `CCCC[N+]1(C)CCCC1.O=S(=O)([N-]S(=O)(=O)C(F)(F)F)C(F)(F)F` + CC(=O)[O-].Cn1cc[nH+]c1 came in with a viscosity of 74.9 mPa·s.

`CCCC[n+]1ccn(C)c1.O=S(=O)([N-]S(=O)(=O)C(F)(F)F)C(F)(F)F` + CC(=O)[O-].Cn1cc[nH+]c1 yielded a viscosity (x2 = 0) of 49.3 mPa·s.

With `COS(=O)(=O)[O-].Cn1cc[n+](C)c1` + CC(=O)[O-].Cn1cc[nH+]c1, the viscosity (x2 = 0) was 93.4 mPa·s.

Turning to `CC(=O)[O-].Cn1cc[nH+]c1` + CCCC[N+]1(C)CCCC1.O=S(=O)([N-]S(=O)(=O)C(F)(F)F)C(F)(F)F, the viscosity is, setting by setting: (x1 = 0.1) 59.5 mPa·s; (x1 = 0.31) 38.8 mPa·s; (x1 = 0.4) 33.3 mPa·s; (x1 = 0.59) 21.1 mPa·s; (x1 = 0.71) 15.9 mPa·s; (x1 = 0.8) 12.1 mPa·s.

For the compound `CC(=O)[O-].Cn1cc[nH+]c1` + CCCC[n+]1ccn(C)c1.O=S(=O)([N-]S(=O)(=O)C(F)(F)F)C(F)(F)F, the viscosity (x1 = 0.1) is 42.8 mPa·s; the viscosity (x1 = 0.19) is given as 38.4 mPa·s; the viscosity (x1 = 0.31) stood at 33.5 mPa·s; the viscosity (x1 = 0.4) is 28.8 mPa·s; the viscosity (x1 = 0.5) was found to be 24.5 mPa·s; the viscosity (x1 = 0.59) came to 20.2 mPa·s. Further, the viscosity was 15.5 mPa·s (x1 = 0.71), 12.2 mPa·s (x1 = 0.8) and 6.22 mPa·s (x1 = 1).

As for `CC(=O)[O-].Cn1cc[nH+]c1` + COS(=O)(=O)[O-].Cn1cc[n+](C)c1, the viscosity runs as follows: (x1 = 0.71) 19.9 mPa·s; (x1 = 0.8) 13.6 mPa·s; (x1 = 1) 6.22 mPa·s.

The viscosity is the internal friction of a fluid under shear. Low values mean easy flow, high ones sluggish flow.

For the origin of these results see a compilation of properties of binary mixtures (doi:10.1016/j.molliq.2018.12.024).
